Reference: BindingDB's records for doi:10.1124/mol.58.6.1375 (University of Alabama At Birmingham, 2000)

Biological target: T1, Gamma-aminobutyric acid receptor subunit rho-3 (Homo sapiens, UniProt A8MPY1)
T1 sequence (A8MPY1 whole entry): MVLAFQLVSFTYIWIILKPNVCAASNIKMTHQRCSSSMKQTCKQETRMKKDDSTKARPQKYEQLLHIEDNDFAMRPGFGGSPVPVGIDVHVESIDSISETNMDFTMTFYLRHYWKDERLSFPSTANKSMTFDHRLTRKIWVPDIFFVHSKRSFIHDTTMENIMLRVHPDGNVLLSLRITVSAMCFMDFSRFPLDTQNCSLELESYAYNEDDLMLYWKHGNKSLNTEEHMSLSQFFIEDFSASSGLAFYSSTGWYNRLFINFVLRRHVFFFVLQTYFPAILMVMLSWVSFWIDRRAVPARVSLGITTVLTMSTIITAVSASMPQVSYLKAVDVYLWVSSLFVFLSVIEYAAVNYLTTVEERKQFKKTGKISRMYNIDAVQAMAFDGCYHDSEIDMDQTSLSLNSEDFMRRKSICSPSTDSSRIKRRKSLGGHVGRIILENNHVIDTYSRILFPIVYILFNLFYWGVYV

SMILES | Ki
NCCCC(=O)O [4-amino-n-[2,3-3H]butyric acid] | 580 nM
NCc1cc(=O)[nH]o1 | 460 nM
O=C(O)Cc1c[nH]cn1 [1H-imidazol-4-ylacetic acid] | 150 nM

Results, then the molecule that gave them:

Ki | SMILES
360 nM | N[C@@H]1C(=O)N2C(C(=O)O)=C(CSc3cnn[nH]3)CS[C@H]12 [CAS_37539-03-0]
> 10000 nM | O=C(O)C1=CCNCC1 [1,2,3,6-Tetrahydro-pyridine-4-carboxylic acid]
